Test results: patent publication EP3623009A1, “MODULATION OF TRF1 FOR BRAIN CANCER TREATMENT” (Fundación del Sector Público Estatal Centro Nacional de …, priority 2018, dated 2020)
“Also recorded” adds a separate entry of the source.

Experiments:
[1] = test system: p-AKT; assay: p-AKT activation (p-AKT/AKT ratio, western blot) in h676 GSCs; format: cell-based, human; conditions: 24h at 1 µM
Description: In order to check whether the novel compounds act independently of this pathway, the present inventors treated the cells for 24h at 1 µM concentration and checked p-AKT activation.

[2] = test system: h676 GSCs; assay: Drug combination (synergy) sphere study in h676 GSCs; format: cell-based, human; conditions: combinatorial matrix, spheres after 7 days, combination index
Description: Using this concentration as a reference point, the present inventors designed a combinatorial matrix using different concentrations of the compounds (e.g. 2x GI50, GI50 and ½ GI50) to study all the possible combinations. Combination index is calculated to establish if the combination is synergistic, additive or antagonistic (Fig. 50A).

[3] = test system: h543 GSCs; assay: Sphere formation assay in h543 patient-derived GSCs; format: cell-based, human; conditions: for sphere formation (dose-response): h543 GSCs, treated 7 days; for diameter of spheres / number of spheres: h543 patient-derived primary GSCs, compared to untreated controls
Description: (§1) Spheres were dissociated into single cells and seeded at a density of 50, 100, 200 and 400 cells/well in a 96 well plate. Neurosphere number was assessed after 7 days. Pictures were taken using Nikon Eclipse Ti-U microscope and neurosphere diameter was measured using NIS Elements BR software.

[4] = test system: h676 GSCs; assay: Sphere formation assay in h676 patient-derived GSCs; format: cell-based, human; conditions: for sphere formation (dose-response): h676 GSCs, treated 7 days; for diameter of spheres / number of spheres: h676 patient-derived primary GSCs, compared to untreated controls
Description: as §1

[5] = test system: K-Ras^G12V-induced lung tumors; conditions: Trf1 chemical inhibition; García-Beccaria et al. 2015; cited from earlier work
[6] = Brain blood barrier crossing (statement)
[7] = test system: h676 GSCs; assay: Subcutaneous xenograft of h676 patient-derived GSCs in nude mice; format: in vivo
Description: (§2) h676 and h543 patient-derived GSCs were dissociated using a 200 µl pipet and resuspended in NeuroCult medium and matrigel in a 1:1 ratio in a concentration of 1000 cell/µl. Nude mice (athymic Nude-Foxn1^nu/nu from Harlan) were injected subcutaneously with 100 µl of the cell preparation. ETP-47037 (or vehicle) was orally administrated at a concentration of 75 mg/kg 5 days per week (see also section 8), starting one week after cell injection. The vehicle consisted in 10% N-methyl-2-pyrrolidone (NMP, Sigma Aldrich) and 90% poly ethylene glycol (PEG, Sigma Aldrich). Mice were weighted and tumors were measured every 2-4 days. Tumor area was determined by the following equation: A = π * (a/2) * (b/2), were a and b are tumor length and width respectively.
(§3) For oral administration, ETP-47037 was dissolved in 10% N-methyl-2-pyrrolidone (NMP, Sigma Aldrich) and 90% polyethylene glycol (PEG, Sigma Aldrich) at a concentration of 75 mg/kg.
Next, the present inventors set to address whether TRF1 chemical inhibition was able to block tumor growth in vivo. […] Thus, the two independent primary GSCs (h676 and h543) were injected subcutaneously into nude mice. One week after GSC injection, mice received oral administration of the vehicle (NMP 10%, PEG 90%) as placebo or the ETP-47037 TRF1 inhibitor 5 days/week, every week until human endpoint, and tumors were continuously followed-up by caliper measurements (Fig. 42A).

[8] = test system: U251 cells; assay: Sphere formation assay in U251 cells cultured with NSC media; format: cell-based, human; conditions: seven days, compared to DMSO
Description: as §1
Finally, the present inventors checked if the three chemical compounds had the ability to reduce stemness in these cells. They cultured U251 cells with NSC media in order to obtain a suspension culture enriched in stem cells. The inventors performed a sphere formation assay with these cells treated with ETP-47228, ETP-47037 and ETP-50946 or DMSO for seven days. […] Of note, all these effects recapitulated what the present inventors observed with Trf1 genetic downregulation (See 2.2).

[9] = Tolerability and pathology of xenograft mice after long-term treatment; format: in vivo, nude mice
Description: as §2, with “respectively. […] Table1. Mice pathologies after long-term treatment with vehicle or ETP-47037” for “respectively.”

[10] = test system: h543 GSCs; assay: Subcutaneous xenograft of h543 patient-derived GSCs in nude mice; format: in vivo; conditions: oral 75 mg/kg 5 days/week from one week after injection, caliper, vs vehicle
Description: as §2, §3
Next, the present inventors set to address whether TRF1 chemical inhibition was able to block tumor growth in vivo. […] Thus, the two independent primary GSCs (h676 and h543) were injected subcutaneously into nude mice. […]

[11] = h676 xenograft, post-mortem, vs placebo

| Structure (SMILES) | dependence on p-AKT [1] | synergic effect with the PI3Ki (ETP-47037) [2] | diameter of spheres [3] | number of spheres [3] | diameter of spheres [4] | number of spheres [4] | diameter of neurospheres [8] | number of neurospheres [8] | other results |
| --- | --- | --- | --- | --- | --- | --- | --- | --- | --- |
| COc1cc(Nc2ncc3c(n2)-c2ccc(Cl)cc2C(c2c(F)cccc2OC)=NC3)ccc1C(=O)O [Alisertib] | act independently of p-AKT |  |  |  |  |  |  |  |  |
| CC(=O)O[C@@]12CO[C@@H]1C[C@H](O)[C@@]1(C)C(=O)[C@H](O)C3=C(C)[C@@H](OC(=O)[C@H](O)[C@@H](NC(=O)OC(C)(C)C)c4ccccc4)C[C@@](O)([C@@H](OC(=O)c4ccccc4)[C@H]21)C3(C)C [Docetaxel, reference compound] | act independently of p-AKT | significant synergic effect |  |  |  |  |  |  | sphere formation (dose-response) [3]: most potent compounds; sphere formation (dose-response) [4]: most potent compounds |
| CS(=O)(=O)N1CCN(Cc2cc3c(N4CCOCC4)nc(-c4cnc(N)nc4)cn3n2)CC1 [ETP-47037] |  |  | significant drastic reduction | significant drastic reduction | significant drastic reduction | significant drastic reduction | strong reduction | strong reduction | growth of already established lung adenocarcinomas [5]: effectively impair the growth; mouse and tissue viability [5]: without affecting mouse and tissue viability; crossing the brain blood barrier [6]: not crossing the brain blood barrier; proliferation marker Ki67 ([7]; GSCs derived xenograft tumors, Ki67-positive cells per field, vs vehicle): reduces proliferation; γH2AX DNA damage marker ([7]; GSCs derived xenograft tumors, γH2AX-positive cells per field, vs vehicle): induces DNA damage; decrease of TRF1 protein levels ([7]; h676 xenograft tumors, immunofluorescence, vs placebo): 80%; tumor areas ([7]; h676 xenograft, oral 75 mg/kg 5 days/week from one week after injection, caliper, vs vehicle): drastic reduction; tumor size [7, 11]: striking decrease; tumor weight [7, 11]: striking decrease; histological analysis of the tumors ([7]; xenograft tumors after treatment): decreased cellularity in the tumors, together with necrotic areas, apoptotic bodies, compacted chromatin and fragmented DNA; Mice pathologies after long-term treatment ([9]; one cell per mouse (Mice 1 to 4)): Mice 1: dermatitis, mild widening of lymphatic vessels in intestine; also recorded: Mice 2: dermatitis; also recorded: Mice 3: dermatitis; also recorded: Mice 4: dermatitis; signs of sickness or morbidity ([9]; treated cohorts compared to the placebo group): did not detect any signs of sickness or morbidity; tumor areas [10]: drastic reduction |
| Cc1cnc2c(N3CCOCC3)nc(-c3ccc(NC(=O)Nc4ccc(C(=O)N5CCN(C)CC5)cc4)cc3)cn12 [ETP-47228] |  |  | significant drastic reduction | significant drastic reduction | significant drastic reduction | significant drastic reduction | strong reduction | strong reduction | growth of already established lung adenocarcinomas [5]: effectively impair the growth; mouse and tissue viability [5]: without affecting mouse and tissue viability |
| NC(Cc1ccccc1)c1csc(Nc2ncccn2)n1 (centres unmarked) [ETP-50946] |  |  | significant drastic reduction | significant drastic reduction | significant drastic reduction | significant drastic reduction | strong reduction | strong reduction |  |
| CN1CC[C@H](c2c(O)cc(O)c3c(=O)cc(-c4ccccc4Cl)oc23)[C@H](O)C1 [Flavopiridol] | act independently of p-AKT |  |  |  |  |  |  |  |  |
| C[C@@H](Oc1cc(-n2cnc3ccc(CN4CCN(C)CC4)cc32)sc1C(N)=O)c1ccccc1C(F)(F)F [GSK461364] | p-AKT dependent |  |  |  |  |  |  |  |  |
| Nc1ccn([C@@H]2O[C@H](CO)[C@@H](O)C2(F)F)c(=O)n1 [Gemcitabine, reference compound] | act independently of p-AKT | significant synergic effect |  |  |  |  |  |  | sphere formation (dose-response) [3]: most potent compounds; sphere formation (dose-response) [4]: most potent compounds |
| COc1ccc(-c2ccc3c(N4CCOCC4)nc(N4C[C@@H](C)O[C@@H](C)C4)nc3n2)cc1CO [KU-0063794] | p-AKT dependent |  |  |  |  |  |  |  |  |
| O=C(Nc1ccc2[nH]nc(-c3ccncc3)c2c1)[C@@H]1CCN(CC(=O)N2CCN(c3ccc(-c4ncccn4)cc3)CC2)C1 [SCH772984] | act independently of p-AKT | significant synergic effect |  |  |  |  |  |  |  |
